Publication PMC4099174 (Journal of Medicinal Chemistry, 2014)
Read-outs that look alike come from different tables or passages of the source. Marks after values point to notes of the source that are not given here.

Tested on: HepG2 cell line
[1] = Table 1, Selectivity = TC50/EC50 (HepG2 / T. brucei)
[2] = Table 2, Selectivity = TC50/EC50

In the case of `Cn1c(=O)n(-c2ccc(C(C)(C)C#N)cc2)c2c3cc(-c4ccncc4)ccc3ncc21` [Compound 4a], the “HepG2 TC50” value (human, 48 h) is reported as 3.43 µM.
In the case of `Cn1c(=O)n(-c2ccc(C(C)(C)C#N)cc2)c2c3cc(-c4cccnc4)ccc3ncc21` [Compound 4b, 2-Methyl-2-(4-(3-methyl-2-oxo-8-(pyridin-3-yl)-2,3-dihydro-1H-imidazo[4,5-c]quinolin-1-yl)phenyl)propanenitrile], the “HepG2 cytotoxicity TC50” value (human, 48 h) is reported as 0.575 µM.
In the case of `Cn1c(=O)n(-c2ccc(C(C)(C)C#N)cc2)c2c3cc(-c4ccccc4)ccc3ncc21` [Compound 4c, 2-Methyl-2-(4-(3-methyl-2-oxo-8-phenyl-2,3-dihydro-1H-imidazo[4,5-c]quinolin-1-yl)phenyl)propanenitrile], the “HepG2 TC50” value (human, 48 h) is reported as 1.82^d μM.
`Cn1c(=O)n(-c2ccc(C(C)(C)C#N)cc2)c2c3cc(-c4ccc(C(F)(F)F)nc4)ccc3ncc21` [Compound 4d, 2-Methyl-2-(4-(3-methyl-2-oxo-8-(6-(trifluoromethyl)pyridin-3-yl)-2,3-dihydro-1H-imidazo[4,5-c]quinolin-1-yl)phenyl)propanenitrile] showed a Selectivity [1] of over 470.
`Cn1c(=O)n(-c2ccc(C(C)(C)C#N)cc2)c2c3cc(-c4cc5ccccc5s4)ccc3ncc21` [Compound 4f, 2-(4-(8-(Benzo[b]thiophen-2-yl)-3-methyl-2-oxo-2,3-dihydro-1H-imidazo[4,5-c]quinolin-1-yl)phenyl)-2-methylpropanenitrile] was tested, and the Selectivity [1] was over 460 and the “HepG2 toxicity (in words)” value (human, 48 h) was “no HepG2 toxicity observed”.
In the case of `CN1CCN(c2ccc3ncc4c(c3c2)n(-c2ccc(C(C)(C)C#N)cc2)c(=O)n4C)CC1` [Compound 5a, 2-Methyl-2-(4-(3-methyl-8-(4-methylpiperazin-1-yl)-2-oxo-2,3-dihydro-1H-imidazo[4,5-c]quinolin-1-yl)phenyl)propanenitrile], the Selectivity [1] is reported as over 5.
For `Cn1c(=O)n(-c2ccc(C(C)(C)C#N)cc2)c2c3cc(N4CCOCC4)ccc3ncc21` [Compound 5b, 2-Methyl-2-(4-(3-methyl-8-morpholino-2-oxo-2,3-dihydro-1H-imidazo[4,5-c]quinolin-1-yl)phenyl)propanenitrile], the Selectivity [1] was over 24.
`Cn1c(=O)n(-c2ccc(C(C)(C)C#N)cc2)c2c3cc(N)ccc3ncc21` [Compound 6, 2-(4-(8-Amino-3-methyl-2-oxo-2,3-dihydro-1H-imidazo[4,5-c]quinolin-1-yl)phenyl)-2-methylpropanenitrile] gave a Selectivity [1] of over 4.
Work on `CC(=O)Nc1ccc2ncc3c(c2c1)n(-c1ccc(C(C)(C)C#N)cc1)c(=O)n3C` [Compound 7, N-(1-(4-(2-Cyanopropan-2-yl)phenyl)-3-methyl-2-oxo-2,3-dihydro-1H-imidazo[4,5-c]quinolin-8-yl)acetamide] yielded a Selectivity [1] of over 5.
Compound `Cc1ccc2ncc3c(c2c1)n(-c1ccc(C(C)(C)C#N)cc1)c(=O)n3C` [Compound 8, 2-(4-(3,8-Dimethyl-2-oxo-2,3-dihydro-1H-imidazo[4,5-c]quinolin-1-yl)phenyl)-2-methylpropanenitrile] has a Selectivity [1] of over 10.
`Cn1c(=O)n(-c2ccc(C(C)(C)C#N)cc2)c2c3ccccc3ncc21` [Compound 9, 2-Methyl-2-(4-(3-methyl-2-oxo-2,3-dihydro-1H-imidazo[4,5-c]quinolin-1-yl)phenyl)propanenitrile] was tested, and the Selectivity [1] was over 80 and the “HepG2 TC50” value (human, 48 h) was over 50 µM.
In the case of `Cn1c(=O)n(-c2ccc(C(C)(C)C#N)cc2)c2c3cc(C#Cc4cccnc4)ccc3ncc21` [Compound 10, reference compound], the “HepG2 TC50” value (human, 48 h) is reported as 0.14^d μM.
In the case of `Cn1c(=O)n(-c2ccc(C(F)(F)F)cc2)c2c3cc(-c4cnc5ccccc5c4)ccc3ncc21` [Compound 16a, 3-Methyl-8-(quinolin-3-yl)-1-(4-(trifluoromethyl)phenyl)-1H-imidazo[4,5-c]quinolin-2(3H)-one], the Selectivity [2] is reported as over 240.
`Cn1c(=O)n(-c2ccc(C#N)cc2)c2c3cc(-c4cnc5ccccc5c4)ccc3ncc21` [Compound 16b, 4-(3-Methyl-2-oxo-8-(quinolin-3-yl)-2,3-dihydro-1H-imidazo[4,5-c]quinolin-1-yl)benzonitrile] gave a Selectivity [2] of over 540.
